Data: the supplement of paper PMC7695840
Structures can show the parent of a compound that is named as a salt.

Key:
[1] = system: Staphylococcus aureus MW2 delta-mecA (mecA-); assay: IC50 (growth, competition assay); conditions: cefoxitin: subinhibitory
Summary of the method: (§1)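 Pre-induced, 1:1-mixed fluorescent S. aureus MW2 mecA+ and ΔmecA strains were grown 20 h at 37 °C, 90% humidity, unshaken, in LB with a daily-set subinhibitory cefoxitin dose, in 1536-well plates. Compounds were given on five- or nine-point 2-fold gradients, in two dye-swapped replicates. DsRed (540/590) and GFP (485/520) were scaled per plate between single-strain control medians, with No Treatment then set to 0.5. Per-strain IC50 was the dose halving the No Treatment signal, or the maximal signal.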

[2] = system: Staphylococcus aureus MW2 (mecA+); assay: IC50 (growth, competition assay); conditions: cefoxitin: subinhibitory
Summary of the method: as §1

| Structure (SMILES) | IC50 ([1]; fluorescent label: DsRed) [µM] | IC50 ([1]; fluorescent label: GFP) [µM] | IC50 ([2]; fluorescent label: DsRed) [µM] | IC50 ([2]; fluorescent label: GFP) [µM] |
| --- | --- | --- | --- | --- |
| C[C@@H](O)[C@H]1C(=O)N2C(C(=O)O)=C(S[C@@H]3CN[C@H](C(=O)N(C)C)C3)[C@H](C)[C@H]12 [MERREM] | 16 | 11.8 | 89.8 | 98.4 |
| O=C(/C=C/c1ccc(O)c(O)c1)OCCc1ccccc1 [Caffeic acid phenethyl ester] | 22.9 | 19.4 | 57.7 | 88.4 |
| O=C1C(Cl)=C(NCCN2CCOCC2)C(=O)c2ncccc21 | 28.8 | < 9.85 | 33 | 91.7 |
| CCOC(=O)[C@@H](N)Cc1ccc(-c2cc(O[C@H](c3ccc(Cl)cc3-n3ccc(C)n3)C(F)(F)F)nc(N)n2)cc1 [LX1606 hippurate] | < 9.85 | < 9.85 | 21.7 | 19.2 |
| CCC(=O)Nc1cccc(Oc2nc(Nc3ccc(N4CCN(C)CC4)cc3OC)ncc2Cl)c1 [WZ4003] | > 150 | > 150 | > 150 | > 150 |
| O=C(O)c1cn(C2CC2)c2cc(N3CCNCC3)c(F)cc2c1=O [Ciprofloxacin (Cipro)] | 0.863 | 1.17 | 3.52 | 3.52 |
| C=C1c2cccc(O)c2C(=O)C2=C(O)[C@]3(O)C(=O)C(C(N)=O)=C(O)[C@@H](N(C)C)[C@@H]3[C@@H](O)[C@H]12 [RONDOMYCIN] | < 9.85 | < 9.85 | < 9.85 | < 9.85 |
| CC[C@H]1OC(=O)C[C@@H](O)[C@H](C)[C@@H](O[C@@H]2O[C@H](C)[C@@H](O)[C@H](N(C)C)[C@H]2O)[C@@H](CCN2C[C@H](C)C[C@H](C)C2)C[C@@H](C)C(=O)/C=C/C(C)=C/[C@@H]1CO[C@@H]1O[C@H](C)[C@@H](O)[C@@H](OC)[C@H]1OC [Tilmicosin] | < 9.85 | < 9.85 | < 9.85 | < 9.85 |
| CO[C@@H]1[C@@H](OC(N)=O)[C@@H](O)[C@H](Oc2ccc3c(O)c(NC(=O)c4ccc(O)c(CC=C(C)C)c4)c(=O)oc3c2C)OC1(C)C [ALBAMYCIN] | < 9.85 | < 9.85 | < 9.85 | < 9.85 |
| C[C@@H]1CCO[C@H]2Cn3cc(C(=O)NCc4ccc(F)cc4F)c(=O)c(O)c3C(=O)N12 | 109 | 59 | > 150 | > 150 |
| O=C(O)c1nn(Cc2ccc(Cl)cc2Cl)c2ccccc12 [Lonidamine] | 22.4 | 15 | 27.7 | 78.2 |
| CO[C@@]1(NC(=O)C2SC(=C(C(N)=O)C(=O)O)S2)C(=O)N2C(C(=O)O)=C(CSc3nnnn3C)CS[C@@H]21 (some centres not stated) [CEFOTAN] | < 9.85 | < 9.85 | 14.9 | 14.9 |
| Cc1nnc(SCC2=C(C(=O)O)N3C(=O)[C@@H](NC(=O)Cn4cnnn4)[C@H]3SC2)s1 [Cefazolin sodium] | < 9.85 | < 9.85 | < 9.85 | < 9.85 |
| Cc1cc(SCc2sc(-c3ccc(C(F)(F)F)c(F)c3)nc2C)ccc1OCC(=O)O [GW0742] | < 9.85 | < 9.85 | 11.6 | 15.1 |
| CC=CC1=C(C(=O)O)N2C(=O)[C@@H](NC(=O)[C@H](N)c3ccc(O)cc3)[C@H]2SC1 [CEFZIL] | < 9.85 | < 9.85 | 113 | 109 |
| c1ccc(-c2ccc(C(c3ccccc3)n3ccnc3)cc2)cc1 (configuration not stated) [MYCOSPOR] | 16.8 | 10.5 | 15.5 | 19.1 |
| CSc1ccc2c(c1)N(CCC1CCCCN1C)c1ccccc1S2 (configuration not stated) [Thioridazine hydrochloride] | < 9.85 | 14.8 | 57.7 | 50.3 |
| O=C(O[C@H]1CN2CCC1CC2)N1CCc2ccccc2[C@@H]1c1ccccc1 [VESICARE] | 31.8 | 19.9 | 47.9 | 68.2 |
| C[C@H]1c2cccc(O)c2C(=O)C2=C(O)[C@]3(O)C(=O)C(C(N)=O)=C(O)[C@@H](N(C)C)[C@@H]3[C@@H](O)[C@@H]21 [Doxycycline HCl] | < 9.85 | < 9.85 | < 9.85 | < 9.85 |
| O=C(O)C1=C(CSc2nnnn2CS(=O)(=O)O)CS[C@@H]2[C@H](NC(=O)[C@H](O)c3ccccc3)C(=O)N12 [MONOCID] | < 9.85 | < 9.85 | 98.3 | 109 |
| CC(=O)O[C@H]1C[C@@]2(C)[C@@H](C[C@@H](O)[C@H]3[C@@]4(C)CC[C@@H](O)[C@@H](C)[C@@H]4CC[C@@]32C)/C1=C(\CCC=C(C)C)C(=O)O [Fusidic acid sodium] | < 9.85 | < 9.85 | < 9.85 | < 9.85 |
| CCN(CC)CCOc1ccc(C(=C(Cl)c2ccccc2)c2ccccc2)cc1 [Clomifene citrate (Serophene)] | < 9.85 | < 9.85 | 15 | 14.9 |
| O=C(/C=C/c1ccc(O)c(O)c1)c1ccc(O)cc1O [Butein] | 21.3 | 30.4 | 92.3 | 98.5 |
| CC/C(=C(\c1ccccc1)c1ccc(OCCN(C)C)cc1)c1ccccc1 [Tamoxifen citrate] | < 9.85 | < 9.85 | 14.9 | 14.9 |
| C[CH2][Hg][S]c1ccccc1C(=O)[O-].[Na+] [MERTHIOLATE] | < 9.85 | < 9.85 | < 9.85 | < 9.85 |
| C=C(CC)C(=O)c1ccc(OCC(=O)O)c(Cl)c1Cl [EDECRIN] | < 9.85 | < 9.85 | 34.1 | 36.7 |
| CC(C)c1cc2c(c(O)c1O)[C@@]1(C(=O)O)CCCC(C)(C)[C@@H]1CC2 [CARNOSIC ACID] | < 9.85 | < 9.85 | 27.2 | 38.8 |
| COc1cc([C@@H]2c3cc4c(cc3[C@@H](O[C@@H]3O[C@@H]5CO[C@@H](c6cccs6)O[C@H]5[C@H](O)[C@H]3O)[C@H]3COC(=O)[C@H]23)OCO4)cc(OC)c1O [VUMON] | < 9.85 | < 9.85 | < 9.85 | < 9.85 |
